The test system of data set [1] is Escherichia coli. As to the kind of experiment: Antibacterial activity against Escherichia coli HB101 assessed as reduction in bacterial growth by measuring minimum bactericidal concentration incubated for 16 to 20 hrs by serial dilution method. The format is functional. Conditions: time 16-20 hrs.
Data set [2] concerns Escherichia coli. Briefly: Antibacterial activity against Escherichia coli E38 assessed as reduction in bacterial growth pre-triggered with H2S for 1 hr followed by bacterial infection and measured after 16 hrs by spectrometer. The format is functional. As to conditions: time 17 hrs.
Data set [3] deals with Escherichia coli. Briefly: Antibacterial activity against Escherichia coli E38 assessed as reduction in bacterial growth by measuring minimum inhibitory concentration incubated for 16 to 20 hrs by serial dilution method. The format is functional. As to conditions: time 16-20 hrs.
The test system of data set [4] is Escherichia coli. Briefly: Antibacterial activity against Escherichia coli E38 assessed as reduction in bacterial survival rate pre-triggered with NaSH for 1 hr followed by bacterial infection and measured after 16 hrs by spectrometer. The format is functional, organism-based. As to conditions: time 17.0 hrs.
For data set [5], the system named is Escherichia coli. Briefly: Antibacterial activity against Escherichia coli E38 assessed as reduction in bacterial growth by measuring minimum bactericidal concentration incubated for 16 to 20 hrs by serial dilution method. The format is functional. As to conditions: time 16-20 hrs.
Data set [6] deals with Escherichia coli. Briefly: Antibacterial activity against Escherichia coli E38 harboring high NTR expression and H2S assessed as reduction in bacterial survival incubated for 16 hrs by spectrometric analysis. The format is functional, organism-based.
The subject of data set [7] is Escherichia coli. Briefly: Antibacterial activity against Escherichia coli HB101 at 0.5 to 2 times MIC measured after 27 days by broth microdilution method. The format is functional, organism-based. Conditions: time 27.0 day. (In broth dilution the organism is exposed to a series of concentrations in liquid medium.)
In data set [8] the test system is Escherichia coli. Briefly: Antibacterial activity against Escherichia coli E38 infected in female Swiss Webster mouse skin abscess model assessed as log reduction in bacterial load at 20 mg/kg, sc measured after 3 days relative to control. The format is functional. As to conditions: time 3 day.
Data set [9] deals with Staphylococcus aureus. Briefly: Antibacterial activity against Staphylococcus aureus BB255 assessed as reduction in bacterial growth by measuring minimum inhibitory concentration incubated for 16 to 20 hrs by serial dilution method. The format is functional. As to conditions: time 16-20 hrs.
Data set [10] has as its system Escherichia coli. As to the kind of experiment: Antibacterial activity against Escherichia coli E38 assessed as reduction in bacterial survival rate by measuring fold reduction in MIC pre-triggered with H2S for 1 hr followed by bacterial infection and measured after 16 hrs by spectrometer. The format is functional. Conditions: time 17 hrs.
The test system of data set [11] is Escherichia coli. Briefly: Antibacterial activity against Escherichia coli HB101 assessed as reduction in bacterial growth by measuring minimum inhibitory concentration incubated for 16 to 20 hrs by serial dilution method. The format is functional. As to conditions: time 16-20 hrs.
A short description of data set [12]: Retention time of the compound by HPLC analysis. The format is physicochemical.
Data set [13] concerns Staphylococcus aureus. As to the kind of experiment: Antibacterial activity against Staphylococcus aureus BB255 assessed as reduction in bacterial growth by measuring minimum bactericidal concentration incubated for 16 to 20 hrs by serial dilution method. The format is functional. Conditions: time 16-20 hrs.
Data set [14] concerns Escherichia coli. Briefly: Antibacterial activity against Escherichia coli E38 assessed as reduction in bacterial survival rate pre-triggered with nitroreductase for 1 hr followed by bacterial infection and measured after 16 hrs by spectrometer. The format is functional, organism-based. Conditions: time 17.0 hrs.
Data set [15] has as its system Escherichia coli. As to the kind of experiment: Antibacterial activity against Escherichia coli E38 assessed as reduction in bacterial growth pre-triggered with nitroreductase for 1 hr followed by bacterial infection and measured after 16 hrs by spectrometer. The format is functional. Conditions: time 17 hrs.
Data set [16] in a line: Prodrug activation in phosphate buffer saline assessed as Escherichia coli nitroreductase mediated ciprofloxacin metabolite formation measured after 5 mins in presence of NADH by HPLC analysis. The format is ADME. As to conditions: isolated protein.
A short description of data set [17]: Prodrug activation in phosphate buffer saline assessed as Escherichia coli nitroreductase mediated ciprofloxacin metabolite formation measured after 60 mins in presence of NADH by HPLC analysis. Conditions: isolated protein, 1 h. The format is ADME.
Data set [18] concerns Escherichia coli. Briefly: Antibacterial activity against Escherichia coli HB101 at 0.5 to 2 times MIC measured after 30 days by broth microdilution method. As to conditions: time 30.0 day. The format is functional, organism-based.
Data set [19] deals with Escherichia coli. As to the kind of experiment: Antibacterial activity against Escherichia coli E38 assessed as reduction in bacterial survival rate by measuring fold reduction in MIC pre-triggered with nitroreductase for 1 hr followed by bacterial infection and measured after 16 hrs by spectrometer. The format is functional. As to conditions: time 17 hrs.
Data set [20] can be described thus: Prodrug activation in phosphate buffer saline assessed as Escherichia coli nitroreductase mediated intermediate formation measured after 60 mins in presence of NADH and 10 ug/ml of NTR by HPLC analysis. Conditions: isolated protein, 1 h.
Data set [21] is described as follows: Prodrug activation in phosphate buffer saline assessed as Escherichia coli nitroreductase mediated ciprofloxacin metabolite formation measured upto 60 mins in presence of NADH by HPLC analysis. The format is ADME. Conditions: isolated protein, 1 h.
In data set [22] the test system is Escherichia coli. As to the kind of experiment: Antibacterial activity against Escherichia coli E38 assessed as reduction in bacterial growth pre-triggered with nitroreductase and H2S for 1 hr followed by bacterial infection and measured after 16 hrs by spectrometer. The format is functional. As to conditions: time 17 hrs.
Data set [23] has as its system Escherichia coli. As to the kind of experiment: Antibacterial activity against Escherichia coli E38 infected in female Swiss Webster mouse skin abscess model assessed as reduction in bacterial load at 20 mg/kg, sc measured after 3 days. The format is functional, organism-based. Conditions: time 3.0 day.
For data set [24], the system named is Escherichia coli. As to the kind of experiment: Antibacterial activity against Escherichia coli E38 assessed as reduction in bacterial survival rate pre-triggered with nitroreductase and NaSH for 1 hr followed by bacterial infection and measured after 16 hrs by spectrometer. The format is functional, organism-based. As to conditions: time 17.0 hrs.
Data set [25] is described as follows: Prodrug activation in phosphate buffer saline assessed as Escherichia coli nitroreductase mediated ciprofloxacin metabolite formation measured after 120 mins in presence of NADH by HPLC analysis. The format is ADME. Conditions: isolated protein, 2 h.
The nature of data set [26]: Prodrug activation in phosphate buffer saline assessed as Escherichia coli nitroreductase mediated ciprofloxacin metabolite formation by measuring retention time measured after 180 mins in presence of NADH by HPLC analysis. Conditions: isolated protein, 3 h. The format is ADME.

Converted amounts (≈) assume the structure as drawn. The source made the active and inactive calls. Some results are limits rather than exact numbers.

The values that follow come from ChEMBL document CHEMBL5512677, “Site-Specific Antimicrobial Activity of a Dual-Responsive Ciprofloxacin Prodrug” (J Med Chem, 2024).

By MBC is commonly meant the smallest concentration meeting the test's criterion for killing. One may read the MIC as the lowest concentration found to suppress growth.

Regarding `[N-]=[N+]=Nc1ccc(COC(=O)N2CCN(c3cc4c(cc3F)c(=O)c(C(=O)O)cn4C3CC3)CC2)cc1`, the figures for the minimal bactericidal concentration (MBC) in the data set on Escherichia coli [1], with Escherichia coli [5] and in the data set with Staphylococcus aureus [13] were 0.5 µg/mL (≈ 0.987 µM), 2 µg/mL (≈ 3.95 µM) and > 128 µg/mL, respectively. Moreover, the MIC is 0.063 µg/mL (≈ 0.124 µM) with Escherichia coli [2], 1 µg/mL (≈ 1.97 µM) with Escherichia coli [3], 4 µg/mL (≈ 7.9 µM) with Staphylococcus aureus [9] and 0.5 µg/mL (≈ 0.987 µM) with Escherichia coli [11]. Moreover, the result with Escherichia coli [4] was Active. For the same compound, the result in the data set with Escherichia coli [6] and in the data set on Escherichia coli [7] was inactive. For the same compound, the “log(activity)” value in the data set on Escherichia coli [8] stood at 2. Further, in the data set with Escherichia coli [10], the “fold change (FC)” value was determined as 16. The same compound showed a Retention_time in [12] of 12.4 min.

For the compound `O=C(OCc1ccc([N+](=O)[O-])cc1)c1cn(C2CC2)c2cc(N3CCNCC3)c(F)cc2c1=O`, the MBC was 1 µg/mL (≈ 2.14 µM) in the data set with Escherichia coli [1], 2 µg/mL (≈ 4.29 µM) in the data set with Escherichia coli [5] and > 128 µg/mL with Staphylococcus aureus [13]. Further, the outcome in the data set on Escherichia coli [14] and in the data set with Escherichia coli [18] was Active. In addition, the MIC in the data set on Escherichia coli [3] was 1 µg/mL (≈ 2.14 µM); with Escherichia coli [15] it was 0.063 µg/mL (≈ 0.135 µM); in the data set on Staphylococcus aureus [9], 16 µg/mL (≈ 34.3 µM); in the data set with Escherichia coli [11], 0.5 µg/mL (≈ 1.07 µM). In the data set with Escherichia coli [6], the result was inactive. Further, the Drug metabolism result is listed as “Metabolite_Detected” in [16], “Metabolite_Notdetected” in data set [17], “Metabolite_Notdetected” in data set [20] and “Metabolite_Detected” in [21]. In the data set with Escherichia coli [8], the “log(activity)” value is 2. Moreover, the “fold change (FC)” value in the data set with Escherichia coli [19] is given as 16. In data set [12], this compound yielded a Retention_time of 4.7 min.

Turning to `C[C@H](NC(=O)c1cn(C2CC2)c2cc(N3CCNCC3)c(F)cc2c1=O)c1ccc([N+](=O)[O-])cc1`, the minimal bactericidal concentration (MBC) worked out at 1 µg/mL (≈ 2.09 µM) in the data set with Escherichia coli [1] and 4 µg/mL (≈ 8.34 µM) in the data set on Escherichia coli [5]. The result with Escherichia coli [14], in the data set on Escherichia coli [4], in the data set on Escherichia coli [6] and with Escherichia coli [24] was inactive. Further, the minimum inhibitory concentration (MIC) with Escherichia coli [2] is 4 µg/mL (≈ 8.34 µM); in the data set on Escherichia coli [3], 4 µg/mL (≈ 8.34 µM); in the data set on Escherichia coli [22], 4 µg/mL (≈ 8.34 µM); in the data set with Escherichia coli [15] it was 4 µg/mL (≈ 8.34 µM); in the data set with Escherichia coli [11] it was 1 µg/mL (≈ 2.09 µM). In addition, the outcome with Escherichia coli [23] was Active. For the same compound, the Drug metabolism entry in data set [21] is recorded as “Metabolite_Notdetected”.

Turning to `[N-]=[N+]=Nc1ccc(COC(=O)N2CCN(c3cc4c(cc3F)c(=O)c(C(=O)OCc3ccc([N+](=O)[O-])cc3)cn4C3CC3)CC2)cc1`, the MBC with Escherichia coli [1] was 32 µg/mL (≈ 49.9 µM); in the data set on Escherichia coli [5], > 128 µg/mL; in the data set on Staphylococcus aureus [13], > 128 µg/mL. For the same compound, the result in the data set with Escherichia coli [14] and in the data set on Escherichia coli [6] was inactive. Also, the MIC with Escherichia coli [2] was 2 µg/mL (≈ 3.12 µM); with Escherichia coli [3], > 16 µg/mL; with Escherichia coli [22], 0.25 µg/mL (≈ 0.39 µM); with Escherichia coli [15] it was > 16 µg/mL; in the data set on Staphylococcus aureus [9] it was > 128 µg/mL; with Escherichia coli [11], 32 µg/mL (≈ 49.9 µM). For the same compound, the Drug metabolism result in [25] is reported as “Metabolite_Detected”. For the same compound, the result in the data set on Escherichia coli [18] and in the data set with Escherichia coli [24] was Active. For the same compound, the Retention_time in [26] is reported as 2.2 min; in data set [12], 15.2 min. For the same compound, in the data set with Escherichia coli [8], the “log(activity)” value is recorded as 2.

With `O=C(O)c1cn(C2CC2)c2cc(N3CCNCC3)c(F)cc2c1=O` [CIPROFLOXACIN], the minimal bactericidal concentration (MBC) came to 0.004 µg/mL (≈ 0.0121 µM) with Escherichia coli [1], 0.015 µg/mL (≈ 0.0453 µM) with Escherichia coli [5] and 0.5 µg/mL (≈ 1.51 µM) with Staphylococcus aureus [13]. Also, in the data set on Escherichia coli [14], the result was Active. For the same compound, the minimum inhibitory concentration (MIC) with Staphylococcus aureus [9] came out at 0.25 µg/mL (≈ 0.754 µM).
